In patent publication US8901317B2, “Tryptamine derivatives, their preparation and their use in gastropathy” (Council of Scientific & Industrial Research, priority 2010, dated 2014):

Columns and labels:
[1] = Ferric reducing antioxidant power (FRAP) assay; conditions: compound at 10 μM relative to ferrous sulfate; for FRAP Value6 min (μM) M ± SD: 6 min; for FRAP Value65 min (μM) M ± SD: 65 min
Experimental: The antioxidant property of different tryptamine derivatives were assessed and compared with the known antioxidants for potency. […] The FRAP assay is based on the measurement of the ability of the substance to reduce Fe^3+ to Fe^2+, greater the reducing ability greater the anti oxidant property. Antioxidants reduce Fe^3+-TPTZ in to blue colored Fe^2+-TPTZ complex, which results in an increase in the absorbance at 595 nm giving a FRAP value. […] Absorbance changes at different time intervals (FIG. 6) as well as at different concentrations (FIG. 7) at time 6 min in the presence of different compounds at 595 nm were measured. FRAP values at 6 min and 65 min were calculated from different tryptamine derivatives and some known antioxidant (Table 1). […] DPPH assay based on the DPPH free radicals scavenging power of the antioxidant molecules. Higher the scavenging power higher will be the antioxidant property.
The assay was performed in a 96-well microplate. FRAP reagent was prepared by mixing of 10 ml acetate buffer (200 mM, pH-3.6), 1 ml of 2,4,6-tris(2-pyridyl)-s-triazine (TPTZ) solution (10 mM in 40 mM HCl) and 1 ml of ferric chloride solution (20 mM) in distilled water. For 1 h the mixture was kept in a water bath at 37° C. In 96-well microplates, 25 μL of the compounds under investigation dissolved (in methanol, some compound dissolved in water) at different concentrations in the range 1-25 μM was placed in triplicate and freshly prepared FRAP solution (175 μL) was added to this sample. A micro plate reader monitored the absorbance at 595 nm at different time intervals for up to 150 min. The absorbance of a mixture 175 μL TRAP sol and 25 μL methanol or water was taken which was subtracted from the absorbance of the samples at each time interval to calculate the absorbance change (ΔA). The FRAP value at time interval t (FRAP valuet) was calculated according to the formula: FRAP valuet(M)=(ΔatFl/ΔatFe^2+)×10^−5 Where ΔatFl is the absorbance change after the time interval t (6 and 65 min) relative to the tested flavonoid at the concentration of 10 μM and ΔatFe^2+ is the absorbance change at the same time interval relative to ferrous sulfate at the same concentration (Pal, C; et al. Free Radic Biol Med, 49(2), 258-267, 2010, Firuzi, O; et al. Biochim. Biophys. Acta 1721:174-184; 2005).

[2] = DPPH free radical scavenging assay
Experimental: The antioxidant property of different tryptamine derivatives were assessed and compared with the known antioxidants for potency. A range of different synthesized compounds and known anti oxidants, quercetin, ascorbic acid and gallic acid were analyzed by the FRAP assay. The FRAP assay is based on the measurement of the ability of the substance to reduce Fe^3+ to Fe^2+, greater the reducing ability greater the anti oxidant property. Antioxidants reduce Fe^3+-TPTZ in to blue colored Fe^2+-TPTZ complex, which results in an increase in the absorbance at 595 nm giving a FRAP value. […] Absorbance changes at different time intervals (FIG. 6) as well as at different concentrations (FIG. 7) at time 6 min in the presence of different compounds at 595 nm were measured. FRAP values at 6 min and 65 min were calculated from different tryptamine derivatives and some known antioxidant (Table 1). […] DPPH assay based on the DPPH free radicals scavenging power of the antioxidant molecules. Higher the scavenging power higher will be the antioxidant property. […] This assay was performed in presence of some known antioxidants such as ascorbic acid, quercetin and gallic acid.
2,2-Diphenyl-1-Picrylhydrazyl (DPPH) is a stable free radical that can accept hydrogen radical or an electron and become a stable diamagnetic molecule. The antioxidants can scavenge the DPPH by donating hydrogen as visualized by discoloration of the DPPH radical from purple to yellow (Pal, C; et al. Free Radic Biol Med, 49(2), 258-267; 2010, Ben Farhat, M.; et al. J. Agric. Food Chem. 57:10349-10356; 2009, Han, J; et al. Wei Sheng Yan Jiu 38:596-598; 2009). The assay system contained 1 mL of compounds under investigation dissolved (in methanol, some compound dissolved in water) at different concentrations in the range 10-100 μM solution and 4 ml of DPPH (0.15 mM) in methanol (80% in water v/v) and mixed well. It was allowed to stand for 30 min at 27° C. away from light. Ascorbic acid at the same concentration was taken as positive control. The absorbance of the solution was measured spectrophotometrically at 517 nm and from the decrease of absorption; the antioxidant activity of different tryptamine derivatives were determined.

[3] = system: indomethacin-induced gastric mucosal damage; assay: Indomethacin-induced gastric mucosal damage (ulcer index, histology); format: in vivo, Sprague-Dwaley rats; conditions: for gastroprotective effect compared with SEGA (3a): 6.9 mg kg^−1 intraperitoneally, indomethacin-induced gastropathy; for Gastric mucosal damage (ulcer index): rats
Experimental: Sprague-Dwaley rats (180-220 gm) were used for this study. Each group (control or experimental) of animals was maintained at 24±2° C. with 12 hrs lights and dark cycle. The animals were fasted for 24 hrs before the start of experiments. They were provided with water ad libitum to avoid food-induced increased acid secretion and its effect on gastric lesions. Gastric mucosal ulcer was developed by indomethacin as described (Pal, C; et al. Free Radic Biol Med, 49(2), 258-267; 2010, Biswas, K.; et al. J. Biol. Chem. 278:10993-11001; 2003, Bandyopadhyay, U.; et al. Life Sci. 71:2845-2865; 2002). Briefly, all the animals were divided into control, indomethacin and test compound group. Oral administration of indomethacin at a dose of 48 mg kg^−1 b.w was given to the fasted animals to induce gastric ulcer. […] Control group received vehicle only but no indomethacin. After 4 hrs of indomethacin treatment, the animals were sacrificed under proper euthanasia and stomachs were collected. The mucosal injury was scored as ulcer index as follows: 0=no pathology; 1=one pinhead ulcer. The sum of the total scores divided by the number of animals gave the ulcer index. All the in vivo studies were done in accordance with the institute animal ethical committee guidelines. To see the effect of SEGA on diclofenac induced gastric mucosal injury, gastric mucosal damage was developed by the oral administration of diclofenac (75 mg kg^−1) and the rest of the experiment was carried out in a similar way as described for indomethacin. Diclofenac produced pinhead ulcer like indomethacin and the mucosal injury was scored as ulcer index as described above. Ethanol-induced gastric mucosal injury was developed with oral administration of 1 ml of 50% ethanol (Banerjee, R. K. (2002) Life Sci 71, 2845-2865) and after 4 hrs the animals were sacrificed and cold-restrain stress induced mucosal injury was developed by immobilizing the animals at 4° C. for 3.5 hrs (Banerjee, R. K. (2002) Life Sci 71, 2845-2865, (2003) J Biol Chem 278, 10993-11001).
Stomach tissues from the animals of different groups were washed first washed several times with PBS (pH 7.4) and later fixed in 10% buffered formalin for 12 hrs at 25° C. The formalin-fixed tissues were then dehydrated and embedded in paraffin for preparing semi-thin sections (Maity, P.; et al. J. Biol. Chem. 283:14391-14401; 2008). The semi-thin sections were prepared using a microtome and taken over poly-L-lysine coated glass slide for hematoxylene-eosine staining. The stained sections were observed under microscope (Leica DM-2500, Germany) and were documented by high-resolution digital camera.

[4] = compounds 100 μM, 517 nm (Table 2)
[5] = compound 6.9 mg kg^−1 intraperitoneally before indomethacin 48 mg kg^−1 oral

Row | Structure (SMILES) | FRAP Value6 min (μM) M ± SD [1] [µM] | FRAP Value65 min (μM) M ± SD [1] [µM] | Absorbance change (ΔA) at 30 min [2, 4] | Absorbance change (ΔA) at 30 min ([2]; concentration 10 μM (Table 3)) | Absorbance change (ΔA) at 30 min ([2]; concentration 30 μM (Table 3)) | Absorbance change (ΔA) at 30 min ([2]; concentration 50 μM (Table 3)) | Absorbance change (ΔA) at 30 min ([2]; concentration 80 μM (Table 3)) | Absorbance change (ΔA) at 30 min ([2]; concentration 100 μM (Table 3)) | gastroprotective effect compared with SEGA (3a) [3] | Gastric mucosal damage (ulcer index) [3, 5] | Gastric mucosal damage (ulcer index) ([3]; indomethacin 48 mg kg^−1 alone, oral)
1 | O=C1O[C@H]([C@@H](O)CO)C(O)=C1O [Ascorbic acid, reference compound] | 15.46 ± 0.07 | 15.89 ± 2.24 |  |  |  |  |  |  |  |  | 
2 | O=C(Cc1c[nH]c2ccccc12)NCCc1c[nH]c2ccc(O)cc12 [Compound 2c, N-(2-(5-hydroxy-1H-indol-3-yl)ethyl)-2-(1H-indol-3-yl)acetamide] | 2.48 ± 0.10 | 3.57 ± 0.41 | 0.14 ± 0.04 |  |  |  |  |  |  |  | 
3 | O=C(/C=C/c1ccc(O)cc1)NCCc1c[nH]c2ccccc12 [Compound 2e, (E)-N-(2-(1H-indol-3-yl)ethyl)-3-(4-hydroxyphenyl)acrylamide] | 2.45 ± 0.19 | 5.60 ± 1.02 | 0.11 ± 0.02 |  |  |  |  |  |  |  | 
4 | O=C(Cc1c[nH]c2ccccc12)NCCc1c[nH]c2ccccc12 [Compound 2f, N-(2-(1H-indol-3-yl)ethyl)-2-(1H-indol-3-yl)acetamide] | 2.44 ± 0.24 | 3.33 ± 0.49 | 0.13 ± 0.03 |  |  |  |  |  |  |  | 
5 | COc1ccc2[nH]cc(CCNC(=O)/C=C/c3ccc(O)cc3)c2c1 [Compound 2h, (E)-3-(4-hydroxyphenyl)-N-(2-(5-methoxy-1H-indol-3-yl)ethyl)acrylamide] | 1.87 ± 0.13 | 2.93 ± 1.43 | 0.11 ± 0.03 |  |  |  |  |  |  |  | 
6 | COc1ccc2[nH]cc(CCNC(=O)Cc3c[nH]c4ccccc34)c2c1 [Compound 2i, 2-(1H-indol-3-yl)-N-(2-(5-methoxy-1H-indol-3-yl)ethyl) acetamide] | 1.94 ± 0.04 | 2.5 ± 0.34 | 0.12 ± 0.02 |  |  |  |  |  |  |  | 
7 | O=C(NCCc1c[nH]c2ccccc12)c1cc(O)c(O)c(O)c1 [Compound 3b, N-(2-(1H-indol-3-yl)ethyl)-3,4,5-trihydroxybenzamide] | 14.32 ± 0.36 | 19.65 ± 2.1 | 0.31 ± 0.06 | 0.16 ± 0.02 | 0.21 ± 0.05 | 0.23 ± 0.04 | 0.28 ± 0.03 | 0.31 ± 0.06 | lesser gastroprotective effect | 42 ± 2 | 
8 | COc1ccc2[nH]cc(CCNC(=O)c3cc(O)c(O)c(O)c3)c2c1 [Compound 3c, 3,4,5-trihydroxy-N-(2-(5-methoxy-1H-indol-3-yl)ethyl)benzamide] | 15.32 ± 0.46 | 21.96 ± 2.6 | 0.35 ± 0.08 | 0.18 ± 0.02 | 0.24 ± 0.03 | 0.28 ± 0.05 | 0.31 ± 0.07 | 0.35 ± 0.08 | lesser gastroprotective effect | 39 ± 2 | 
9 | NCCc1c[nH]c2ccc(OC(=O)c3cc(O)c(O)c(O)c3)cc12 [Compound 4d, 3-(2-aminoethyl)-1H-indol-5-yl 3,4,5-trihydroxybenzoate] | 24.02 ± 1.98 | 35.40 ± 3.25 | 0.38 ± 0.07 | 0.18 ± 0.01 | 0.27 ± 0.03 | 0.31 ± 0.05 | 0.33 ± 0.05 | 0.38 ± 0.07 | lesser gastroprotective effect | 41 ± 2.5 | 
10 | COc1ccc2c(c1)c(CC(=O)O)c(C)n2C(=O)c1ccc(Cl)cc1 [Indomethacin, reference compound] |  |  |  |  |  |  |  |  |  |  | 61 ± 3
11 | O=c1c(O)c(-c2ccc(O)c(O)c2)oc2cc(O)cc(O)c12 [Quercetin, reference compound] | 28.11 ± 1.00 | 48.55 ± 4.85 |  |  |  |  |  |  |  |  | 
